Data set [1] concerns nicotine lethality. Kind of data set: Inhibition of nicotine spasm / nicotine lethality. It counts as in vivo, mice. The conditions noted are these: for Therapeutical index (inhibition of nicotine lethality): LD50 and ED50 nicotine lethality; for ED50: Mus musculus, read-out: Inhibition of nicotine lethality ED50. Here is the method:
(5) Inhibition of nicotine spasm
The test is carried out on mice according to Stone.

For data set [2], the system named is acetic acid writhing. Briefly: animal or person. It counts as in vivo. Particulars: for Therapeutical index (analgesic effect, writhing test): LD50 and ED50 writhing test, mice; for ED50: Mus musculus, ip, read-out: Analgesic effect (writhing test) ED50. Here is the method:
(9) Analgesic effect on mice (writhing test)
The test is carried out on mice according to the modified method of Newbould. 0.75 percent acetic acid is administered to the animals in a volume of 20 ml/kg, intraperitoneally, and the characteristic "writhing reactions" are counted for a period of 5 minutes, starting from the fifth minute after challenge. […] The inhibition relative to the control group is evaluated in percentage.

Data set [3] relates to Tetrabenazine ptosis. Briefly: animal or person. Format: in vivo. Particulars: for Therapeutical index (tetrabenazine ptosis antagonism): LD50 and ED50 tetrabenazine ptosis, mice; for ED50: Mus musculus, po, read-out: Tetrabenazine ptosis antagonism ED50. Here is the method: (2) Tetrabenazine ptosis antagonism on mice
The tetrabenazine ptosis antagonism of the compounds are tested on groups consisting of 10 mice each. […] 30 minutes after the introduction of the active agent or the vehicle, 50 mg/kg of tetrabenazine (3-isobutyl-9,10-[…]-1,2,3,4,6,7-hexahydrobenzo[a]quinolizine-2-one) are administered, intraperitoneally, and the animals with ptosis are counted 30, 60, 90 and 120 minutes after the administration of the tetrabenazine.
Evaluation: the average ptosis value is calculated in each group, and the deviation from the average obtained for the control group (inhibition) is given in percentage. From the data obtained ED50 values are calculated.

The subject of data set [4] is narcosis. Briefly: Potentiation of narcosis. Particulars: for Therapeutical index (potentiation of narcosis): LD50 and ED50 narcosis; for ED50: read-out: Potentiation of narcosis ED50.
Data set [5] relates to maximum electroshock. Kind of data set: animal or person. It counts as in vivo. Particulars: for Therapeutical index (inhibition of maximum electroshock): LD50 and ED50 electroshock, mice; for ED50: Mus musculus, po, read-out: Inhibition of maximum electroshock ED50. Here is the method: (7) Maximum inhibition of electroshock
The examination is carried out on mice weighing 20 to 25 g according to Swinyard. Electroshocks having the parameters of 50 Hz, 45 mA and 0.4 sec are employed by means of corneal electrodes. The complete inhibition of the tonic spasm of the lower limb extensor is taken as the criterium of the anticonvulsive action.

Data set [6] deals with pentatetrazole spasm. Kind of data set: animal or person. It counts as in vivo. The conditions noted are these: for Therapeutical index (inhibition of pentatetrazole spasm): LD50 and ED50 pentatetrazole spasm, mice; for ED50: Mus musculus, po, read-out: Inhibition of pentatetrazole spasm ED50. Here is the method:
(6) Inhibition of pentatetrazole spasm
The test is performed on mice according to a modified method of Banziger and Hane.

Data set [7] has as its system yohimbine toxicity. Kind of data set: animal or person. The conditions noted are these: for Therapeutical index (potentiation of yohimbine toxicity): LD50 and ED50 yohimbine toxicity, mice; for ED50: Mus musculus, ip, read-out: Potentiation of yohimbine toxicity ED50. Format: in vivo. Here is the method:
(4) Yohimbine toxicity test on mice.
The examination is performed according to Quinton's method. Each group of animals consisting of 10 mice are treated with the compounds to be tested and the vehicle without active agent, respectively. After one hour a sublethal dosage of yohimbine in a volume of 20 ml/kg body weight is administered to the test groups, intraperitoneally. The number of the dead animals is recorded 1 and 24 hours after the administration of yohimbine.

Data set [8] has as its system Reserpine ptosis. Briefly: animal or person. Particulars: for Therapeutical index (reserpine ptosis antagonism): LD50 and ED50 reserpine ptosis, mice; for ED50: Mus musculus, sc, 1 h, read-out: Reserpine ptosis antagonism ED50. It counts as in vivo. Here is the method:
(3) Reserpine ptosis antagonism on mice
Each group consisting of 10 mice are treated with 6 mg/kg of reserpine, subcutaneously. […] The animals with ptosis are counted 60 and 120 minutes after the administration of the compounds to be tested. Evaluation is carried out as given under point (2) above.

A short description of data set [9]: in vivo. Particulars: mouse, mice, 7 days observation, Litchfield-Wilcoxon. Here is the method: (1) Acute toxicity on mice
The acute toxicity is determined on mice of both sex (CFLP breed, body weight 18 to 22 g). For each dosis 6 animals are employed. The compounds tested are administered orally in a volume of 20 ml/kg body weight. After the administration the animals are observed for 7 days. During this period the animals are fed with standard mouse feed and water ad libitum. The toxicity values are determined according to Litchfield-Wilcoxon's method.

For data set [10], the system named is intestinal peristalsis. Briefly: animal or person. Format: in vivo. Here is the method: (8) Antiperistaltic effect on mice
The antiperistaltic effect of the compounds is examined on mice weighing 20 to 25 g according to the method of Stickney and co-workers. Each dosis of the compound to be tested is administered, orally, 60 minutes prior to the administration of a 10 percent carbon suspension. […] 20 minutes after the administration of the carbon suspension, the animals are sacrificed, and the length of the entire small intestine as well as that of the small intestine filled with carbon are determined. The inhibition in relation to the control is calculated in percentage. […] From the values thus-transformed ED50 values are calculated.

The mark [11] stands for this setting: mice, oral, 1 hour before 1.4 mg/kg i.v. nicotine.

Like-named read-outs stand apart in the source and are kept apart here.

Consider `CC1CN(c2ccc(Cl)cc2N)C(=N)S1.CCS(=O)(=O)O` (centres unmarked) [Compound 12, 3-(2-amino-4-chlorophenyl)-2-imino-5-methylthiazolidine ethanesulfonate], for which the “Therapeutical index (inhibition of nicotine lethality)” value in data set [1] (mice) was 100. Moreover, in data set [1] (setting [11]), the 50% effective dose (ED50) is 6 mg/kg. Further, in [2], the “Therapeutical index (analgesic effect, writhing test)” value is 17.7 and the 50% effective dose (ED50) came out at 34 mg/kg. In [3], the “Therapeutical index (tetrabenazine ptosis antagonism)” value stood at 83 and the ED50 amounted to 7.2 mg/kg. Moreover, in [4], the “Therapeutical index (potentiation of narcosis)” value stood at 14.0 and the ED50 is 41 mg/kg. In addition, in [5], the “Therapeutical index (inhibition of maximum electroshock)” value is on record as 30 and the ED50 was 12 mg/kg. Also, in [6], the “Therapeutical index (inhibition of pentatetrazole spasm)” value is 40 and the ED50 was 15 mg/kg. For the same compound, in [7], the “Therapeutical index (potentiation of yohimbine toxicity)” value is given as 13.3 and the ED50 was determined as 45 mg/kg.
In the case of `CC1CSC(=N)N1c1ccc(Cl)cc1N.Cl.Cl` (centres unmarked) [Compound 3, 3-(2-amino-4-chlorophenyl)-2-imino-4-methylthiazolidine dihydrochloride], the “Therapeutical index (inhibition of nicotine lethality)” value in data set [1] (mice) was 31.3. Also, the ED50 in data set [1] (setting [11]) came to 6.4 mg/kg. In data set [3], the “Therapeutical index (tetrabenazine ptosis antagonism)” value is 67 and the ED50 came out at 3 mg/kg. Further, in data set [5], the “Therapeutical index (inhibition of maximum electroshock)” value stood at 14.2 and the median effective dose (ED50) stood at 14 mg/kg. Besides, in data set [6], the “Therapeutical index (inhibition of pentatetrazole spasm)” value is 25.6 and the 50% effective dose (ED50) turned out to be 7.8 mg/kg. In addition, in [8], the “Therapeutical index (reserpine ptosis antagonism)” value was determined as 67 and the median effective dose (ED50) came out at 3 mg/kg. This compound also displayed an LD50 at 168 h in [9] (po) of 200 mg/kg.
Turning to `CCS(=O)(=O)O.CCS(=O)(=O)O.N=C1SCCN1c1ccc(Cl)cc1N` [Compound 8, 3-(2-amino-4-chlorophenyl)-2-iminothiazolidine di(ethanesulfonate)], the “Therapeutical index (inhibition of nicotine lethality)” value in [1] (mice) came out at 83.3. In addition, the ED50 in data set [1] (setting [11]) is 12 mg/kg; in [2], 170 mg/kg; in [3], 1.5 mg/kg; in data set [5] it was 80 mg/kg; in [6] it was 14 mg/kg; in data set [8], 20 mg/kg. The 50% effective dose (ED50) turned out to be 95 mg/kg in [10] (Mus musculus, po, read-out: Inhibition of intestinal peristalsis ED50) and 22 mg/kg in [7]. In addition, the “Therapeutical index (analgesic effect, writhing test)” value in data set [2] is 5.9. Moreover, the “Therapeutical index (tetrabenazine ptosis antagonism)” value in data set [3] amounted to 667. The “Therapeutical index (inhibition of maximum electroshock)” value in data set [5] is recorded as 12.5. The “Therapeutical index (inhibition of pentatetrazole spasm)” value in data set [6] is listed as 71.4. For the same compound, the “Therapeutical index (reserpine ptosis antagonism)” value in data set [8] turned out to be 50. The same compound displayed an LD50 at 168 h in data set [9] (oral) of 1000 mg/kg. The “Therapeutical index (inhibition of intestinal peristalsis)” value in data set [10] (LD50 and ED50 intestinal peristalsis, mice) is 10.5. In addition, the “Therapeutical index (potentiation of yohimbine toxicity)” value in [7] is given as 45.5.
For `Cl.Cl.N=C1SCCN1c1ccc(Cl)cc1N` [Compound 1, 3-(2-amino-4-chlorophenyl)-2-iminothiazolidine dihydrochloride], the “Therapeutical index (inhibition of nicotine lethality)” value in data set [1] (mice) is recorded as 5.6. The 50% effective dose (ED50) in data set [1] (po) was 25 mg/kg. Besides, in data set [3], the “Therapeutical index (tetrabenazine ptosis antagonism)” value amounted to 39 and the ED50 is 18 mg/kg. Also, in data set [5], the “Therapeutical index (inhibition of maximum electroshock)” value turned out to be 10 and the ED50 came to 70 mg/kg. In addition, in data set [6], the “Therapeutical index (inhibition of pentatetrazole spasm)” value is given as 31.8 and the ED50 came to 22 mg/kg. Further, in data set [8], the “Therapeutical index (reserpine ptosis antagonism)” value was determined as 14 and the median effective dose (ED50) turned out to be 50 mg/kg. Besides, in [9] (oral), the median lethal dose (LD50) at 168 h was 700 mg/kg.
Consider `CCCC(C)(COC(N)=O)COC(N)=O` [Meprobamate, reference compound], for which, in data set [4], the “Therapeutical index (potentiation of narcosis)” value is given as 4.2 and the ED50 came to 260 mg/kg. Further, the LD50 at 168 h in data set [9] (oral) turned out to be 1100 mg/kg.

For the origin of these results see patent publication US4665083A, “Iminothiazolidine derivatives” (priority 1984, dated 1987).
